Measured values from patent US20190307749A1, “Mitochondria-Division Inhibitor 1 Protects Against Amyloid-B Induced Mitochondrial Fragmentation and Synaptic Damage in Alzheimer's Disease” (Texas Tech University System, priority 2018, published 2019).

How the values were obtained:
N2a cells [1] = assay: Cytochrome c oxidase activity; assay type: cell-based, mouse; conditions: Mdivi1 24 hrs or Aβ42 20 μM 6 hrs alone, vs untreated N2a cells
Experimental: (§1) Tissue culture: The N2a cells were grown for 3 days in a serum-free medium (1:1 mixture of DMEM and OptiMEM, plus penicillin and streptomycin [Invitrogen, Carlsbad, Calif., USA]) until the cells developed neuronal processes.
Cytochrome c oxidase activity: Cytochrome oxidase activity was measured in each of the 5 groups of N2a cells. Enzyme activity was assayed spectrophotometrically using a Sigma Kit (Sigma-Aldrich) following manufacturer's instructions. […] The decrease in absorbance at […] was recorded for 1-min reactions at 10-sec intervals. Cytochrome oxidase activity was measured according to the following formula: mU/mg total mitochondrial protein=(A/min sample−(A/min blank)×1.1 mg protein×21.84). The protein concentrations were determined following the BCA method.

N2a cells [2] = assay: H2O2 production (Amplex Red H2O2 assay); assay type: cell-based, mouse; conditions: Mdivi1 24 hrs or Aβ42 20 μM 6 hrs alone, vs untreated N2a cells
Experimental: as §1
Mitochondrial functional assays. H2O2 production: Using an Amplex® Red H2O2 assay kit (Molecular Probes, Eugene, Oreg., USA), H2O2 production was measured using cell pellets, as described in Manczak and Reddy. Briefly, H2O2 production was measured in the protein lysates prepared from cell pellets of control untreated N2a cells and 4 treatment groups (FIG. 1). A BCA protein assay kit (Pierce Biotechnology) was used to estimate protein concentration. The reaction mixture contained mitochondrial proteins (μg/μl), Amplex Red reagents (50 μM), horseradish peroxidase (0.1 U/ml), and a reaction buffer (1×). The mixture was incubated at room temperature for 30 minutes, followed by spectrophotometer readings of fluorescence (570 nm). Finally, H2O2 production was determined, using a standard curve equation expressed in nmol/μg mitochondrial protein.

N2a cell mitochondria = assay: Mitochondrial ATP levels (luciferase bioluminescence); assay type: cell-based, mouse; conditions: N2a cells; Mdivi1 24 hrs or Aβ42 20 μM 6 hrs alone; vs untreated N2a cells
Experimental: as §1
ATP levels: ATP levels were measured in N2a cell mitochondria from the treatment groups using an ATP determination kit (Molecular Probes). A bioluminescence assay was used, based on the reaction of ATP with recombinant firefly luciferase and its substract luciferin. Luciferase catalyzes the formation of light from ATP and luciferin. It is the emitted light that is linearly related to the concentration of ATP, which is measured with a luminometer. ATP levels were measured from mitochondrial pellets using a standard curve method.

N2a cells [3] = assay: Cell viability (MTT assay); assay type: cell-based, mouse; conditions: Mdivi1 24 hrs or Aβ42 20 μM 6 hrs alone, vs untreated N2a cells
Experimental: as §1
The N2a cells from all 5 groups (4 treatment groups and 1 control group) were harvested, and their cell pellets were collected and used for quantitative real-time RT-PCR, immunoblotting analysis of mitochondrial and synaptic proteins, and mitochondrial functional assays for hydrogen peroxide production, lipid peroxidation, cytochrome c oxidase activity, and MTT determination. Isolated mitochondria from N2a cells from all 5 groups were used to determine mitochondrial ATP as described in Reddy et al..

[4] = test system: mouse neuroblastoma (N2a) cells; assay: Immunoblotting analysis of mitochondrial dynamics, biogenesis and synaptic proteins; assay type: cell-based; conditions: Mdivi1 24 hrs or Aβ42 20 μM 6 hrs alone, vs untreated N2a cells
Experimental: as §1
Twenty g of protein was resolved from each group of cells on a 4-12% Nu-PAGE gel (Invitrogen). The resolved proteins were transferred to […] (Novax Inc., San Diego, Calif., USA) and were then incubated for 1 hour at room temperature with a blocking buffer (5% dry milk dissolved in a TBST buffer). The PVDF membranes were incubated overnight with primary antibodies (see Table 2) and washed 3 times with a TBST buffer at 10-minute intervals. They were then incubated for 2 hours with appropriate secondary antibodies, followed by 3 additional washes at 10-minute intervals. Mitochondrial and synaptic proteins were detected with cheminilumniscence reagents (Pierce Biotechnology, Rockford, Ill., USA), and the bands from immunoblots were quantified on a Kodak scanner, following manufacturer's instructions (ID Image Analysis Software, Kodak Digital Science, Kennesaw, Ga., USA), and the gel images were analyzed from gel images captured with a Kodak digital science CD camera. The lanes were marked to define the positions and specific regions of the bands. An ID fine-band command was used to locate and to scan the bands in each lane and to record the readings.

N2a cells [5] = assay: Lipid peroxidation assay (4-hydroxy-2-nonenol, HNE-His ELISA); assay type: cell-based, mouse; conditions: Mdivi1 24 hrs or Aβ42 20 μM 6 hrs alone, vs untreated N2a cells
Experimental: as §1
Lipid peroxidation assay: Lipid peroxidates are unstable indicators of oxidative stress in the brain. The final product of lipid peroxidation is 4-hydroxy-2-nonenol (HNE), which was measured in the N2a cell lysates prepared from cell pellets of control and treatment groups. The inventors used an HNE-His ELISA kit (Cell BioLabs, Inc., San Diego, Calif., USA), as described in Manczak and Reddy. Briefly, freshly prepared protein as added to a 96-well protein binding plate and incubated overnight at 4° C. The protein then washed 3 times with a buffer. After the last wash, the anti-HNE-His antibody was added to the protein in the wells, incubated for 2 hours at room temperature, and then washed again 3 times. The samples were then incubated with a secondary antibody conjugated with peroxidase for 2 hours at room temperature, followed by incubation with an enzyme substrate. Optical density was measured (at 450 nm) to quantify the level of HNE.

[6] = test system: mouse neuroblastoma (N2a) cells; assay: Quantitative real-time RT-PCR: mRNA expression of mitochondrial dynamics, biogenesis and synaptic genes; assay type: cell-based; conditions: N2a cells + Aβ42; Mdivi1 given before (preventive) vs after (curative) Aβ42; mRNA and protein data
Experimental: as §1
Quantitative real-time RT-PCR: Using the reagent TriZol (Invitrogen), total RNA was isolated from cell pellets from the 5 N2a cell groups (FIG. 1). Using primer express software (Applied Biosystems, Carlsbad, Calif., USA), the inventors designed the oligonucleotide primers for the housekeeping genes 3-actin, GAPDH, mitochondrial structural genes, fission genes (Drp1, Fis1), fusion genes (MFN1, MFN2, Opa1), biogenesis genes (PGC1c, Nrf1, Nrf2, TFAM), and synaptic genes (synaptophysin and PSD95) (see Table 1 for primer sequences and amplicon sizes). Using SYBR-Green chemistry-based quantitative real-time RT-PCR, mRNA expressions of the above-mentioned genes were measured, as described by Manczak and Reddy.
The mRNA transcript level was normalized against β-actin and the GAPDH at each dilution. The standard curve was the normalized mRNA transcript level, plotted against the log-value of the input cDNA concentration at each dilution. To compare β-actin, GAPDH, and relative quantification was performed according to the (CT) method (Applied Biosystems). […] The ΔCT-value was obtained by subtracting the average β-actin CT value from the average CT-value of the synaptic mitochondrial ETC genes and the mitochondrial structural genes. The ΔCT of untreated cells was used as the calibrator. The fold change was calculated according to the formula 2^-(Δ ΔCT), where ΔΔCT is the difference between ΔCT and the ΔCT calibrator value. To determine the statistical significance of mRNA expression, the CT value differences between the untreated cells and other experimental groups of cells were used in relation to β-actin normalization. Statistical significance was calculated, using one-way ANOVA.

Molecule	Cytochrome oxidase activity (N2a cells [1])	H2O2 levels (N2a cells [2])	Mitochondrial ATP levels (N2a cell mitochondria)	Cell viability (N2a cells [3])	Drp1 protein level [4]	Fis1 protein level [4]	Mfn1 protein level [4]	Mfn2 protein level [4]	Nrf1 protein level [4]	Nrf2 protein level [4]	Opa1 protein level [4]	PGC1α protein level [4]	PSD95 protein level [4]	Synaptophysin protein level [4]	PSD95 protein level ([4]; listed as Aβ)	Synaptophysin protein level ([4]; listed as Aβ)	Lipid peroxidation levels (4-hydroxy-2-nonenol) (N2a cells [5])	Protective effects against Aβ42, pre-treated vs post-treated cells [6]
Aβ42: Aβ42 peptide purchased from Anaspec, used to induce mitochondrial and synaptic toxicity in N2a cells	Significantly lower	significantly increased	Significantly lower	Significantly lower	significantly higher	significantly higher	significantly lower	significantly lower	Significantly lower	Significantly lower	significantly lower	Significantly lower	significantly lower	significantly lower	significantly higher	significantly higher	Significantly higher	
O=c1c2ccccc2[nH]c(=S)n1-c1cc(O)c(Cl)cc1Cl [water soluble Mdivi1, 3-(2,4-dichloro-5-hydroxyphenyl)-2-thioxo-2,3-dihydroquinazolin-4(1H)-one]																		stronger in pre-treated cells than post-treated cells
